Results as given in PubChem BioAssay AID1963866 (Molecular Pharmacology Branch, DTP, NCI, 2024).

System: PDC KRAS tumor spheroids with HUVEC/MSC, viability
Assay: Anticancer human tumor 349418-098-R-PDC patient-derived lung adenocarcinoma cell line growth inhibition [KRAS2]
Conditions: for IC50: curve of first compound; for viability, T/C: stronger effect = lower value
Text: Multicellular complex tumor spheroid response to RAS pathway inhibitors in combination with a targeted agents in patient-derived cell lines with oncogenic KRAS variants from multiple cancer types
A high-throughput screen of multi-cell type tumor spheroids was designed to identify active combinations of targeted small molecules and KRAS pathway inhibitors. Complex spheroids include a stromal component modeled by human endothelial cells (HUVEC) and fibroblasts modeled by human mesenchymal stem cells (MSCs). The concentration ranges selected for each drug and investigational agent were based upon clinically achievable concentrations if the clinical Cmax of the agent was known.
Compounds. The drugs and investigational agents: BI-3406 (NSC825286), BAY-293 (NSC824723), batoprotafib (TNO155; NSC825523), sotorasib (AMG 510; NSC818433), MRTX1257 (NSC819558), elimusertib (BAY 1895344; NSC800525), molibresib (GSK525762; NSC774829), temuterkib (LY3214996; NSC803410), venetoclax (NSC766270), alisertib (NSC759677), olaparib (NSC753686), talazoparib (NSC767125), erdafitinib (NSC781556), ipatasertib (NSC767898), cabozantinib (NSC761068), nintedanib (NSC756659), abemaciclib (NSC768073), docetaxel (NSC628503), trametinib (NSC758246), and sapanisertib (NSC764658) were obtained from the National Cancer Institute (NCI) Developmental Therapeutics Program Chemical Repository. The FDA-approved anticancer drug set is available from the Developmental Therapeutics Program. […] The stock solutions were prepared in dimethyl sulfoxide (DMSO, Sigma-Aldrich, St. Louis, MO, cat. D2650) at 800-fold the tested concentration and stored at -70 degrees C prior to their use. All drugs and investigational agents were tested over a range starting from a high concentration at or near the clinical Cmax and decreasing in half-log increments. If the clinical Cmax for an agent had not been determined, the highest concentration tested was 10 microM.
Cell Culture. All cells were maintained in an incubator at 37 degrees C and 5% CO2 with 95% humidity. The PDC lines were cultured according to standard operating procedures established by the NCI PDMR (https://pdmr.cancer.gov/sops/default.htm). Briefly, all PDCs were thawed and cultured in Matrigel-coated flasks prepared with a working solution of 1X Ham's F-12 nutrient mix, without supplementation (Invitrogen, Waltham, MA, cat. 11765054), 100 U/mL penicillin-streptomycin (Invitrogen, cat. 15140122), and 2.5% Matrigel (Corning Inc., Corning, NY, cat. 354248) for the first three passages. All PDCs were cultured in complete DMEM/F-12 media containing advanced DMEM/F-12 (Invitrogen, cat. 12634028), 4.9% defined fetal bovine serum, heat inactivated (HyClone Laboratories Inc., Logan, UT, cat. SH30070.03HI), 389 ng/mL hydrocortisone (Sigma-Aldrich, cat. H4001), 9.7 ng/mL human EGF recombinant protein (Invitrogen, cat. PHG0313), 23.4 microg/mL adenine (Sigma-Aldrich, cat. A2786), 97.3 U/mL penicillin-streptomycin (Invitrogen, cat. 15140122), 1.9 mM L-glutamine (Invitrogen, cat. 25030081), and 9.7 microM Y-27632 dihydrochloride (Tocris Bioscience, Bristol, United Kingdom, cat. 1254). The PDCs were cultured in complete DMEM/F12 media without 9.7 microM Y-27632 dihydrochloride for at least two passages prior to the screen. The established cell line HOP-62 was cultured in RPMI 1640 medium, HEPES (Invitrogen, cat. 22400105) with 10% defined fetal bovine serum (HyClone Laboratories Inc., cat. SH30070.03) and 2 mM L-glutamine (Invitrogen, cat. 25030081). The pooled donor HUVEC were cultured in endothelial cell growth medium 2 (PromoCell, Heidelberg, Germany, cat. C-22011) and the hMSC were cultured in mesenchymal stem cell growth medium 2 (PromoCell, cat. C-28009). For all experiments, HUVEC and hMSC were used at passages </=5, while the malignant cell lines were used at passages </=15. […]

[1] = second compound 0.1 µM, first compound 0.0316 µM
[2] = second compound 0.1 µM, first compound 0.1 µM
[3] = second compound 0.1 µM, first compound 0.316 µM
[4] = second compound 0.1 µM, first compound 1 µM
[5] = second compound 0.1 µM, first compound 3.16 µM
[6] = second compound 0.316 µM, first compound 0.0316 µM
[7] = second compound 0.316 µM, first compound 0.1 µM
[8] = second compound 0.316 µM, first compound 0.316 µM
[9] = second compound 0.316 µM, first compound 1 µM
[10] = second compound 0.316 µM, first compound 3.16 µM
[11] = second compound 1 µM, first compound 0.0316 µM
[12] = second compound 1 µM, first compound 0.1 µM
[13] = second compound 1 µM, first compound 0.316 µM
[14] = second compound 1 µM, first compound 1 µM
[15] = second compound 1 µM, first compound 3.16 µM
[16] = second compound 3.16 µM, first compound 0.0316 µM
[17] = second compound 3.16 µM, first compound 0.1 µM
[18] = second compound 3.16 µM, first compound 0.316 µM
[19] = second compound 3.16 µM, first compound 1 µM
[20] = second compound 3.16 µM, first compound 3.16 µM
[21] = second compound 10 µM, first compound 0.0316 µM
[22] = second compound 10 µM, first compound 0.1 µM
[23] = second compound 10 µM, first compound 0.316 µM
[24] = second compound 10 µM, first compound 1 µM
[25] = second compound 10 µM, first compound 3.16 µM
[26] = second compound 0.1 µM, first compound 10 µM
[27] = second compound 0.316 µM, first compound 10 µM
[28] = second compound 1 µM, first compound 10 µM
[29] = second compound 3.16 µM, first compound 10 µM
[30] = second compound 10 µM, first compound 10 µM
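Also: spheroids exposed to compounds for seven days before readout.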

SMILES	IC50 (second compound 0.1 µM)	IC50 (second compound 0.316 µM)	IC50 (second compound 1 µM)	IC50 (second compound 3.16 µM)	IC50 (second compound 10 µM)	viability, T/C [1]	viability, T/C [2]	viability, T/C [3]	viability, T/C [4]	viability, T/C [5]	viability, T/C [6]	viability, T/C [7]	viability, T/C [8]	viability, T/C [9]	viability, T/C [10]	viability, T/C [11]	viability, T/C [12]	viability, T/C [13]	viability, T/C [14]	viability, T/C [15]	other results
CC1COCCN1c1cc(-c2ccnn2C)c2ccnc(-c3ccn[nH]3)c2n1 (stereo not given) + C=CC(=O)N1CCN(c2nc(=O)n(-c3c(C)ccnc3C(C)C)c3nc(-c4c(O)cccc4F)c(F)cc23)C(C)C1	27.4 nM	26.4 nM	27.1 nM	15.4 nM	< 10 nM	46.3%	9.21%	6.2%	4.48%	4.43%	37.7%	8.7%	4.96%	4.36%	4.34%	42%	7.61%	5.66%	4.24%	4.16%	viability, T/C (second compound 0.1 µM, first compound 0.01 µM): 76.3%; viability, T/C (second compound 0.316 µM, first compound 0.01 µM): 117%; viability, T/C (second compound 1 µM, first compound 0.01 µM): 101%; viability, T/C (second compound 3.16 µM, first compound 0.01 µM): 69%; viability, T/C [16]: 18.1%; viability, T/C [17]: 6.37%; viability, T/C [18]: 4.8%; viability, T/C [19]: 4.05%; viability, T/C [20]: 4.49%; viability, T/C (second compound 10 µM, first compound 0.01 µM): 21.2%; viability, T/C [21]: 5.73%; viability, T/C [22]: 4.31%; viability, T/C [23]: 4.56%; viability, T/C [24]: 4.61%; viability, T/C [25]: 4.96%
CC1OCC2(CCN(c3cnc(Sc4ccnc(N)c4Cl)c(N)n3)CC2)C1N (stereo not given) + C=CC(=O)N1CCN(c2nc(=O)n(-c3c(C)ccnc3C(C)C)c3nc(-c4c(O)cccc4F)c(F)cc23)C(C)C1	> 10000 nM	> 10000 nM	> 10000 nM	> 10000 nM	< 31.6 nM	109%	79.5%	110%	90%	76%	87.3%	94.9%	90.2%	100%	96.4%	82%	106%	96.3%	78.6%	95.5%	viability, T/C [26]: 74.5%; viability, T/C [27]: 78.5%; viability, T/C [28]: 73.8%; viability, T/C [16]: 70.2%; viability, T/C [17]: 71.1%; viability, T/C [18]: 72.6%; viability, T/C [19]: 63.2%; viability, T/C [20]: 68%; viability, T/C [29]: 60.2%; viability, T/C [21]: 30.3%; viability, T/C [22]: 33.1%; viability, T/C [23]: 23.9%; viability, T/C [24]: 25%; viability, T/C [25]: 28%; viability, T/C [30]: 21.9%
CCNC(=O)CC1N=C(c2ccc(Cl)cc2)c2cc(OC)ccc2-n2c(C)nnc21 (stereo not given) + C=CC(=O)N1CCN(c2nc(=O)n(-c3c(C)ccnc3C(C)C)c3nc(-c4c(O)cccc4F)c(F)cc23)C(C)C1	133 nM	139 nM	185 nM	140 nM	< 31.6 nM	84.2%	55.5%	31.9%	11.2%	1.81%	83%	54%	37%	11.2%	1.1%	78.3%	60.4%	41.4%	6.68%	2.48%	viability, T/C [26]: 0.76%; viability, T/C [27]: 0.76%; viability, T/C [28]: 0.75%; viability, T/C [16]: 69.9%; viability, T/C [17]: 52.9%; viability, T/C [18]: 37.9%; viability, T/C [19]: 9.47%; viability, T/C [20]: 2.07%; viability, T/C [29]: 0.56%; viability, T/C [21]: 44.4%; viability, T/C [22]: 28.8%; viability, T/C [23]: 6.81%; viability, T/C [24]: 2.7%; viability, T/C [25]: 1.1%; viability, T/C [30]: 0.62%
Cn1nccc1Nc1nccc(-c2cc3c(s2)C(C)(C)N(CCN2CCOCC2)C3=O)n1 + C=CC(=O)N1CCN(c2nc(=O)n(-c3c(C)ccnc3C(C)C)c3nc(-c4c(O)cccc4F)c(F)cc23)C(C)C1	85.5 nM	64.3 nM	67.6 nM	37.4 nM	< 31.6 nM	75.7%	46.1%	23.6%	13.3%	10.8%	72.4%	29.5%	30.2%	18.7%	12.2%	64.9%	39.1%	33.6%	18.3%	13.3%	viability, T/C [26]: 7.2%; viability, T/C [27]: 7.24%; viability, T/C [28]: 9.7%; viability, T/C [16]: 53%; viability, T/C [17]: 34.9%; viability, T/C [18]: 25.7%; viability, T/C [19]: 16.5%; viability, T/C [20]: 9.89%; viability, T/C [29]: 8.92%; viability, T/C [21]: 32.6%; viability, T/C [22]: 19.6%; viability, T/C [23]: 16.1%; viability, T/C [24]: 13.9%; viability, T/C [25]: 9.06%; viability, T/C [30]: 6.64%
